According to patent publication US11712434B2, “Compound having anti-cancer effect, and preparation method therefor and use thereof” (3D MEDICINES (BEIJING) CO., LTD., priority 2016, dated 2023):

How the values were obtained:
[1] = system: NCI-H1648; assay: Cell proliferation assay (Alamar Blue); assay type: cell-based; conditions: Homo sapiens, 144 h; NCI-H1648 tumor cell line; 6 days culture
Description: (§1) 1. Instruments and Materials • Thermo 311 CO2 incubator; Haier biosafety cabinet; Molecular Devices microplate reader; Xiangyi brand L530 desktop low speed centrifuge; Olympus IX51 inverted fluorescence microscope, DMEM, RPMI 1640, MEM, DMEM/F12 1:1 medium, Fetal bovine serum, 0.25% trypsin solution, phosphate buffer (Thermo Fisher Shanghai Co., Ltd.); sigma dimethyl sulfoxide (DMSO), resazurin; 54 commercial tumor cell lines (including 26 liver cancer cell lines). Experimental drugs: compounds 1-12 and active drug Linifanib; chemotherapeutic drug Doxorubicin (HY-15142; Shanghai Qianyuan Biomedical Technology Co., Ltd.).
(§2) 2. Experimental Methods • 2.1 Cultivation of Different Cell Lines • 54 cell lines were cultured in a culture medium containing fetal bovine serum and placed in a 5% CO2 incubator at 37° C. for incubation. The cells were all grown in an adherent state, and the growth was observed under an inverted microscope, and subculture was performed when the cell confluence rate reached 80%-90%. The proportion and quantity of passage were determined by experimental needs. The ratio of subculture of this cell line was generally 1:2^˜1:3. • 2.2 Inhibition Effect on the Proliferation of Different Tumor Cell Lines • Cell test: 54 cell lines in logarithmic growth phase were inoculated in 96-well culture plates at 500^˜1×10^4/well (the optimal seeding density of each cell line was determined in pre-experiment), After incubating at 37° C. for 4 h in a 5% CO2 humidification incubator, added 10 μL of compounds 1-12 or Linifanib to each well, and tested 9 drug concentration gradients for each compound (diluted from the highest concentration of the test by 3.16 times). The solubility of each compound was different at a starting concentration of 100 or 30 μM, respectively. The QC reference compound Doxorubicin was added simultaneously to each cell line test, and the final drug concentrations were 10, 3.16, 1, 0.31, 0.1, 0.03, 0.01, 0.003, and 0.001 μM, respectively. In addition, a positive control group (100% inhibition) and a negative control group (0% inhibition) were set at the same time. The drug group was repeated for 2 wells per concentration, and the positive control group and the negative control group were repeated for 6 wells. After the culture was continued for 6 days in the incubator, AlamarBlue test operation was followed; • AlamarBlue test procedure: Incubated with 10 μL of AlamarBlue reagent per well for 1-4 h, shook for 1-2 min, MD microplate reader EX: 560 nm, EM: 590 nm wavelength to measure fluorescence, recorded the results, calculated the cell inhibition rate of the compound of the invention. Cell inhibition rate (%)=(A0% inhibition−A administration)/(A0% inhibition−A100% inhibition)×100%, and then using the method of nonlinear regression using GraphPad Prism 5.0 or MATILAB software (usually using four parameters) to graph and obtain a drug dose response curve to obtain an IC50 value of the compound of the present invention acting on a cancer cell line.

[2] = system: NCI-H1703; assay: Cell proliferation assay (Alamar Blue); assay type: cell-based; conditions: Homo sapiens, 144 h; NCI-H1703 (lung cancer cells); 6 days culture
Description: as §1, §2

[3] = system: NCI-H526; assay: Cell proliferation assay (Alamar Blue); assay type: cell-based; conditions: Homo sapiens, 144 h; NCI-H526 tumor cell line; 6 days culture
Description: as §1, §2

[4] = system: NCI-H2170; assay: Cell proliferation assay (Alamar Blue); assay type: cell-based; conditions: Homo sapiens, 144 h; NCI-H2170 tumor cell line; 6 days culture
Description: as §1, §2

[5] = system: NCI-H661; assay: Cell proliferation assay (Alamar Blue); assay type: cell-based; conditions: Homo sapiens, 144 h; NCI-H661 tumor cell line; 6 days culture
Description: as §1, §2

[6] = system: NCI-H716; assay: Cell proliferation assay (Alamar Blue); assay type: cell-based; conditions: Homo sapiens, 144 h; NCI-H716 tumor cell line; 6 days culture
Description: as §1, §2

[7] = system: liver cancer; conditions: liver cancer patients, phase III; cited from earlier work

IC50 [1] [µM] | IC50 [2] [nM] | IC50 [3] [µM] | IC50 [4] [µM] | IC50 [5] [µM] | IC50 [6] [µM] | Structure (SMILES) | toxicity and side effects [7] | ORR (overall response rate) [7] [%] | TTP (time to progression) [7] [months]
7.17 | 20 | 7.8 | 4 | 13.3 | 4.1 | Cc1ccc(F)c(NC(=O)Nc2ccc(-c3cccc4[nH]nc(N)c34)cc2)c1 [Linifanib, reference compound] | greater than Sorafenib |  | 
 |  |  |  |  |  | CNC(=O)c1cc(Oc2ccc(NC(=O)Nc3ccc(Cl)c(C(F)(F)F)c3)cc2)ccn1 [Sorafenib] |  | 6.9 | 4.0
